Laboratory results: the SangsterLogP compilation

Assays:
[1] = not given; remark: listed apart in the source
[2] = method code SF-HPLC, from DOI: 10.1021/js980008v, PMID: 9758683
[3] = not given; remark: listed apart in the source
[4] = pH 6.0
[5] = method code SF-GLC, from DOI: 10.1897/1552-8618(1989)8[499:dowpcf]2.0.co;2
[6] = method code SF-HPLC, from DOI: 10.13422/j.cnki.syfjx.2013.03.051
[7] = method code SF-AS, from DOI: 10.1023/a:1021720128725
[8] = not given; remark: listed apart in the source
[9] = method code SF, from ISBN: 9780815518525; conditions: pH 7.0
[10] = not given; remark: listed apart in the source
[11] = not given; remark: listed apart in the source
[12] = not given; remark: listed apart in the source
[13] = method code SF-AS, from DOI: 10.2307/3574491, PMID: 940937; conditions: pH 7.4
[14] = not given; remark: listed apart in the source
[15] = not given; remark: listed apart in the source
[16] = method code SF, from ISBN: 9780948404450
[17] = method code SF, from ISBN: 9780444415486

For `N#Cc1cc(Br)c(O)c(Br)c1`, the logP was 2.7.

`CCS(=O)CCSP(=O)(OC)OC` (stereo not given) showed a logP [1] of -0.74.

With `CC(=O)OCN1C(=O)NC(c2ccccc2)(c2ccccc2)C1=O` the logP [2] was 2.8.

Compound `Cc1ccccc1/C=C/[N+](=O)[O-]` has a logP [3] of 2.63.

In the case of `CC(=O)[C@H]1CC[C@H]2[C@@H]3CCC4=CC(=O)CC[C@]4(C)[C@H]3CC[C@]12C`, the logD [4] is reported as 3.7.

Work on `CCc1ccc2c(c1)C(=O)c1ccccc1C2=O` yielded a logP [5] of 4.37.

For `CCCC(=O)OCN1C(=O)NC(c2ccccc2)(c2ccccc2)C1=O`, the logP [2] was 3.9.

`O=C1C=CC[C@@H]2[C@H]3CCC[N+]4([O-])CCC[C@@H](CN12)[C@@H]34` (stereo not given in full) showed a logP [6] of -0.44.

`Cc1cn2c(=O)c3c(nc2[nH]1)N(COCCO)C(Br)N3` (stereo not given) gave a logP [7] of -0.11.

With `Cc1ccccc1C(=N)c1ccccc1C` the logP [8] was 3.31.

Compound `CC(C)(C)c1cn2c(=O)c3ncn(COCCO)c3nc2[nH]1` has a logP [7] of 0.62.

Work on `CNC(=O)N(C)c1nnc(C(C)(C)C)s1` yielded a logD [9] of 1.79.

With `CCCCNCCCC` the logP [10] was 2.68.

For `CC(=O)Nc1cc(C(C)(C)C)c(O)cc1C`, the logP [8] was 2.18.

`OCCOCCOCCOCCO` showed a logP [10] of -1.38.

`Nc1ccccc1` gave a logP [11] of 1.08.

In the case of `c1ccc(Oc2cccc(-c3ccccc3)c2)cc1`, the logP [10] is reported as 5.55.

In the case of `OCCN(CCO)CCO`, the logP [10] is reported as -1.32.

In the case of `Oc1ccccc1`, the logP [12] is reported as 1.6.

In the case of `COC(=O)CCn1c(C)cnc1[N+](=O)[O-]`, the logD [13] is reported as -0.25.

With `O=C1NC(=O)C(c2ccccc2)(c2ccccc2)N1` the logP [2] was 2.21.

For `CSc1nc(NC(C)C)nc(NC(C)C)n1`, the logP [14] was 3.36.

`O=[N+]([O-])c1nccn1CC(O)CO` (stereo not given) showed a logD [13] of -0.96.

Work on `O=C(O)c1c(O)cccc1O` yielded a logP [15] of 1.23.

With `Nc1nc2c(ncn2COCCO)c(=O)[nH]1` the logP [7] was -1.44.

For `CCS(=O)c1sc(C#N)c(Cl)c1C#N` (stereo not given), the logP [16] was 2.54.

In the case of `O=C(O)c1ccccc1C(=O)Nc1cccc2ccccc12`, the logP is reported as 3.

With `Clc1cc(Cl)c(Cl)cc1Cl` the logP [5] was 4.6.

Compound `CN1C(=O)OC(c2ccccc2)C1=O` (stereo not given) has a logP [17] of 1.06.

For `O=C1NC(c2ccccc2)(c2ccccc2)C(=O)N1CO`, the logP [2] was 2.23.
